The term pIC50 denotes the negative decadic logarithm of the IC50, by convention in mol/L. Broadly, the inhibition in vivo is the drop in the measured response relative to a control, in per cent. The Inhibition is the change of the read-out against control, counted positive when it falls.

pIC50: −log10 of the molar value.

This is an account of results in ChEMBL document CHEMBL1149953 (Bioorg Med Chem Lett, 1996).

The target in assay [1] is T1, Type-1 angiotensin II receptor B (Rattus norvegicus, UniProt P29089).
T1 sequence (P29089 whole entry): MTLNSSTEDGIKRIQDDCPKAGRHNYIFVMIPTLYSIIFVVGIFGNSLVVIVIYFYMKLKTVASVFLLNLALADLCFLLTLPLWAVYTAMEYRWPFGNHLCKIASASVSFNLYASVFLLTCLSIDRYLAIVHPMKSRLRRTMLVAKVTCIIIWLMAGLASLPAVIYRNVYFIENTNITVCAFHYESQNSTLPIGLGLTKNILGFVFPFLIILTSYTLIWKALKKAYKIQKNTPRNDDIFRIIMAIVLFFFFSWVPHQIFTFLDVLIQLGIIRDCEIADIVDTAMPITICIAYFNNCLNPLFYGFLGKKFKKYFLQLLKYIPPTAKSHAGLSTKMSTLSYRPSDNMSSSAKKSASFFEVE
The experiment in a line: In vitro ability to displace the specific binding of [125I]-A II from receptors in rat liver membrane(type 1 receptor).

In assay [2] the test system is Rattus norvegicus. The experiment in a line: In vivo potency to inhibit the pressor response induced by angiotensin II (100ng/Kg, iv) in conscious normotensive rat at 24 hours after administration of 3 mg/kg, po. The format is functional. To be noted: for inhibition in vivo at 3 mg/kg: Rattus norvegicus, po, 24 h.
The test system of assay [3] is Rattus norvegicus. The experiment in a line: In vivo potency to inhibit the pressor response induced by angiotensin II (100ng/Kg, iv) in conscious normotensive rat at 6 hours after administration of 3 mg/kg, po. To be noted: for inhibition in vivo at 3 mg/kg: Rattus norvegicus, po, 6 h. Format: functional.
Assay [4] relates to Rattus norvegicus. The experiment in a line: Compound was tested for antihypertensive effect in renal hypertensive rats at 10 mg/kg, po expressed as percent reduction in blood pressure. Format: functional.
Assay [5] concerns Rattus norvegicus. The experiment in a line: Compound was tested for antihypertensive effect in renal hypertensive rats at 3 mg/kg, po expressed as percent reduction in blood pressure. Format: functional.
Assay [6] has as its system Rattus norvegicus. Kind of assay: In vivo potency to inhibit the pressor response induced by angiotensin II (100ng/Kg, iv) in conscious normotensive rat at 24 hours after administration of 0.3 mg/kg, po. The format is functional.
Assay [7] concerns Rattus norvegicus. The experiment in a line: In vivo potency to inhibit the pressor response induced by angiotensin II (100ng/Kg, iv) in conscious normotensive rat at 24 hours after administration of 1 mg/kg, po. The format is functional.
The test system of assay [8] is Rattus norvegicus. Kind of assay: In vivo potency to inhibit the pressor response induced by angiotensin II (100ng/Kg, iv) in conscious normotensive rat at 6 hours after administration of 0.3 mg/kg, po. Format: functional.
The subject of assay [9] is Rattus norvegicus. The experiment in a line: In vivo potency to inhibit the pressor response induced by angiotensin II (100ng/Kg, iv) in conscious normotensive rat at 6 hours after administration of 1 mg/kg, po. Format: functional.
For assay [10], the system named is Rattus norvegicus. Kind of assay: Compound was tested for antihypertensive effect in renal hypertensive rats at 1 mg/kg, po expressed as percent reduction in blood pressure. The format is functional.
Assay [11] deals with Rattus norvegicus. Kind of assay: Compound was tested for antihypertensive effect in renal hypertensive rats at 0.3 mg/kg, po expressed as percent reduction in blood pressure. Format: functional.
For assay [12], the system named is Rattus norvegicus. The experiment in a line: In vivo potency to inhibit the pressor response induced by angiotensin II (100ng/Kg, iv) in conscious normotensive rat at 6 hours after administration of 0.1 mg/kg, po.
In assay [13] the test system is Rattus norvegicus. The experiment in a line: In vivo potency to inhibit the pressor response induced by angiotensin II (100ng/Kg, iv) in conscious normotensive rat at 24 hours after administration of 0.1 mg/kg, po.
Assay [14] relates to Rattus norvegicus. Kind of assay: Antihypertensive effect as reduction in blood pressure in renal hypertensive rats at 10 mg/kg dose specified administered perorally. The format is functional. The following applies: route oral. Set-up: scale not given: the % may be the effect or the level left.
The subject of assay [15] is Rattus norvegicus. The experiment in a line: Antihypertensive effect as reduction in blood pressure in renal hypertensive rats at 3 mg/kg dose specified administered perorally. The format is functional. More on the design: scale not given: the % may be the effect or the level left. To be noted: route oral.
Assay [16] has as its system Rattus norvegicus. Kind of assay: In vivo potency to inhibit the pressor responses induced by angiotensin II (100ng/kg, iv) in conscious normotensive rat at 10 mg/kg dose specified 24 hr after peroral administration. The format is functional. The following applies: route oral.
The test system of assay [17] is Rattus norvegicus. Kind of assay: In vivo potency to inhibit the pressor responses induced by angiotensin II (100ng/kg, iv) in conscious normotensive rat at 10 mg/kg dose specified 6 hr upon peroral administration. To be noted: route oral. The format is functional.
For assay [18], the system named is Rattus norvegicus. The experiment in a line: In vivo potency to inhibit the pressor responses induced by angiotensin II (100ng/kg, iv) in conscious normotensive rat at 3 mg/kg dose specified 24 hr after peroral administration. The format is functional. To be noted: route oral.
The test system of assay [19] is Rattus norvegicus. The experiment in a line: In vivo potency to inhibit the pressor responses induced by angiotensin II (100ng/kg, iv) in conscious normotensive rat at 1 mg/kg dose specified 24 hr after peroral administration. Format: functional. To be noted: route oral.
Assay [20] concerns Rattus norvegicus. The experiment in a line: In vivo potency to inhibit the pressor responses induced by angiotensin II (100ng/kg, iv) in conscious normotensive rat at 3 mg/kg dose specified 6 hr upon peroral administration. Format: functional. To be noted: route oral.
For assay [21], the system named is Rattus norvegicus. The experiment in a line: In vivo potency to inhibit the pressor responses induced by angiotensin II (100ng/kg, iv) in conscious normotensive rat at 1 mg/kg dose specified 6 hr upon peroral administration. Format: functional. The following applies: route oral.

In assay [1], `CCc1nn(Cc2ccc(-c3ccccc3-c3nn[nH]n3)cc2)/c(=N/C(C)=O)s1` had a pIC50 of 8.14. Besides, the figures for the inhibition in vivo at 3 mg/kg in the assay with Rattus norvegicus [2] and with Rattus norvegicus [3] were -10.3% and 11.3%, respectively.
`CCc1nn(Cc2ccc(-c3ccccc3-c3nn[nH]n3)cc2)/c(=N/C(=O)c2ccccc2C(=O)O)s1` showed a pIC50 in assay [1] of 9.18. For the same compound, the inhibition in vivo at 3 mg/kg in the assay on Rattus norvegicus [2] was determined as 23.2%; in the assay with Rattus norvegicus [3], 48.1%. For the same compound, the Reduction in the assay with Rattus norvegicus [4] is on record as 33.8%; in the assay with Rattus norvegicus [5] it was 25.1%.
For the compound `CCc1nn(Cc2ccc(-c3ccccc3-c3nn[nH]n3)cc2)/c(=N/C(=O)C2=C(C(=O)O)CCC2)s1`, the pIC50 in assay [1] was 9.36. In the assay with Rattus norvegicus [6] (Rattus norvegicus, po, 24 h), the inhibition in vivo at 0.3 mg/kg came to 15%. Further, the Inhibition with Rattus norvegicus [7] stood at 36.6%; with Rattus norvegicus [2] it was 63.1%; with Rattus norvegicus [8], 22.4%; in the assay with Rattus norvegicus [9], 36.4%; with Rattus norvegicus [3], 39.5%. For the same compound, the figures for the Reduction with Rattus norvegicus [10] and in the assay with Rattus norvegicus [5] were 33.5% and 44.3%, respectively.
On to `CCc1nn(Cc2ccc(-c3ccccc3-c3nn[nH]n3)cc2)/c(=N/C(=O)C2=C(C(=O)[O-])CCC2)s1.[K+]`, for which the Inhibition in the assay with Rattus norvegicus [6] was 20.7%; in the assay on Rattus norvegicus [7], 57%; with Rattus norvegicus [8] it was 45.4%; in the assay on Rattus norvegicus [9], 72.1%; in the assay on Rattus norvegicus [12] it was 11.4%; in the assay with Rattus norvegicus [13], -0.7%. Also, the Reduction in the assay on Rattus norvegicus [11] is 27.2%; in the assay with Rattus norvegicus [10], 38.4%.
The compound `CCc1nn(Cc2ccc(-c3ccccc3-c3nn[nH]n3)cc2)/c(=N/C(=O)c2ccccc2Cl)s1` had a pIC50 in assay [1] of 8.44. For the same compound, the inhibition in vivo at 3 mg/kg in the assay with Rattus norvegicus [2] is -11.3%; in the assay on Rattus norvegicus [3] it was 21.3%. The compound further came in with a Reduction in the assay on Rattus norvegicus [4] of 20.2%.
In the case of `CCc1nn(Cc2ccc(-c3ccccc3-c3nn[nH]n3)cc2)/c(=N/C(=O)c2ccccc2)s1`, the pIC50 in [1] was 7.43. The inhibition in vivo at 3 mg/kg is -0.4% with Rattus norvegicus [2] and 4.9% in the assay on Rattus norvegicus [3].
On to `CCc1nn(Cc2ccc(-c3ccccc3-c3nn[nH]n3)cc2)/c(=N/C(=O)C2CC2)s1`, for which the pIC50 in [1] is 8.19. Further, the inhibition in vivo at 3 mg/kg in the assay on Rattus norvegicus [2] is -12.4%; in the assay with Rattus norvegicus [3], 7.8%.
As for `CCCCc1nc(Cl)c(CO)n1Cc1ccc(-c2ccccc2-c2nnn[n-]2)cc1.[K+]` [LOSARTAN POTASSIUM], the values for the Activity in the assay on Rattus norvegicus [14] and in the assay with Rattus norvegicus [15] were 40.4% and 27.4%, respectively. The values for the inhibition in vivo at 10 mg/kg in the assay with Rattus norvegicus [16] and with Rattus norvegicus [17] were 57.4% and 74.2%, respectively. The results for the inhibition in vivo at 3 mg/kg in the assay on Rattus norvegicus [18] and in the assay on Rattus norvegicus [20] were 27.9% and 50.1%, respectively. Moreover, the inhibition in vivo at 1 mg/kg in the assay with Rattus norvegicus [19] was 7.3%; with Rattus norvegicus [21] it was 19.3%.
